Measurements from paper PMC9944328 (Nature Communications, 2023).

How the values were obtained:
GH3 cells = assay: Cell apoptosis assay, Annexin V-FITC/PI flow cytometry, GH3 cells overexpressing SSTR2, 48 h; type: cell-based, rat
Description: The rat pituitary GH3 cells (ATCC, CCL-82.1) were seeded in 12-well plates at 1.5 × 10^5/well. […] Then, the cells were collected for the apoptosis assay according to the instruction of the Annexin V-FITC/PI apoptosis detection kit (BD Biosciences). Briefly, the cells were washed with cold PBS and resuspended in 1 × binding buffer. Then, 5 μl of Annexin V-FITC was added and incubated for 10 min and stained with 5 μl of PI for 5 min in the dark at room temperature. All samples were acquired by a Novocyte flow cytometer (ACEA Biosciences, China), and data were analyzed with NovoExpress^TM software.

SSTR2 mutants [1] = target: SSTR2 mutants (Homo sapiens, UniProt P30874, F265A); assay: Bystander BRET endosomal trafficking (β-arrestin 1-Nluc, FYVE-mVenus), HEK293 (SSTR2 mutants); conditions: HEK293;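 note: Read-out is the BRET ratio between Nluc-fused β-arrestin 1 and the early endosome marker FYVE-mVenus, measured after ligand addition with coelenterazine h as substrate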;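 for Bottom: percent of maximal wild-type response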;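 for Span: percent of maximal wild-type response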;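 for Top: percent of maximal wild-type response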
Description: (§1) Wild-type or mutant SSTR2, β-arrestin 1-Nluc and FYVE-mVenus were co-transfected in HEK293 cells at a ratio of 1:0.5:4 on six-well plates. The next day, the transfected cells were plated on white 96-well and incubated overnight, and then cells were incubated with 90 µL HBSS containing 20 mM HEPES and coelenterazine h (5 µM) at room temperature for 40 min. After incubation, ligand was added and the signal was measured using the Synergy H1 microplate reader (BioTek) to determine a BRET ratio.

SSTR2 mutants [2] = target: SSTR2 mutants (Homo sapiens, UniProt P30874, I130A); assay: as above; conditions: HEK293
Description: as §1

SSTR2 mutants [3] = target: SSTR2 mutants (Homo sapiens, UniProt P30874, I284A); assay: as above; conditions: for Bottom: Best-fit values
Description: as §1

SSTR2 mutants [4] = target: SSTR2 mutants (Homo sapiens, UniProt P30874, K291A); assay: as above; conditions: for Bottom: best-fit
Description: as §1

SSTR2 mutants [5] = target: SSTR2 mutants (Homo sapiens, UniProt P30874, P220A); assay: as above; conditions: for Bottom: Best-fit values
Description: as §1

SSTR2 mutants [6] = target: SSTR2 mutants (Homo sapiens, UniProt P30874, R140A); assay: as above; conditions: Best-fit values
Description: as §1

SSTR2 mutants [7] = target: SSTR2 mutants (Homo sapiens, UniProt P30874, W269A); assay: as above; conditions: for Bottom: Best-fit values
Description: as §1

SSTR2 mutants [8] = target: SSTR2 mutants (Homo sapiens, UniProt P30874, Y312A); assay: as above; conditions: Best-fit values
Description: as §1

SSTR2 mutants [9] = assay: as above
Description: as §1

Sequence of SSTR2 mutants (Homo sapiens, UniProt P30874, K291A) (P30874 whole entry K291A): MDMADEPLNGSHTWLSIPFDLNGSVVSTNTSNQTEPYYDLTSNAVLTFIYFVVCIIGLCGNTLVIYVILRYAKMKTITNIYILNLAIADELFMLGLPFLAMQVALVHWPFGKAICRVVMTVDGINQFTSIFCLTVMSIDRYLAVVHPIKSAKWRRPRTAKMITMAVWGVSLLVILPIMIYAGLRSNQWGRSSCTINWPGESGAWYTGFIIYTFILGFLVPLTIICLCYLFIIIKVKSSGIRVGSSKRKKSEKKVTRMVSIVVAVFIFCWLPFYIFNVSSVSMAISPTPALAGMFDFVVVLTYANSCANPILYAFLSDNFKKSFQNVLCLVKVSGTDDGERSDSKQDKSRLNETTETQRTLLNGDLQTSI
Sequence of SSTR2 mutants (Homo sapiens, UniProt P30874, W269A) (P30874 whole entry W269A): as the sequence (P30874 whole entry K291A) above, with W269A, A291K counted along it
Sequence of SSTR2 mutants (Homo sapiens, UniProt P30874, P220A) (P30874 whole entry P220A): as the sequence (P30874 whole entry K291A) above, with P220A, A291K counted along it
Sequence of SSTR2 mutants (Homo sapiens, UniProt P30874, I284A) (P30874 whole entry I284A): as the sequence (P30874 whole entry K291A) above, with I284A, A291K counted along it
Sequence of SSTR2 mutants (Homo sapiens, UniProt P30874, R140A) (P30874 whole entry R140A): as the sequence (P30874 whole entry K291A) above, with R140A, A291K counted along it
Sequence of SSTR2 mutants (Homo sapiens, UniProt P30874, Y312A) (P30874 whole entry Y312A): as the sequence (P30874 whole entry K291A) above, with A291K, Y312A counted along it
Sequence of SSTR2 mutants (Homo sapiens, UniProt P30874, I130A) (P30874 whole entry I130A): as the sequence (P30874 whole entry K291A) above, with I130A, A291K counted along it
Sequence of SSTR2 mutants (Homo sapiens, UniProt P30874, F265A) (P30874 whole entry F265A, the tested form may be a part): as the sequence (P30874 whole entry K291A) above, with F265A, A291K counted along it

## C[C@@H](O)[C@@H]1NC(=O)[C@H](CCCCN)NC(=O)[C@@H](Cc2c[nH]c3ccccc23)NC(=O)[C@H](Cc2ccccc2)NC(=O)[C@@H](NC(=O)[C@H](N)Cc2ccccc2)CSSC[C@@H](C(=O)N[C@H](CO)[C@@H](C)O)NC1=O [octreotide]
GH3 cells
  Proapoptotic activity: able to activate proapoptotic pathways
SSTR2 mutants [1]
  Emax: 56.1 ± 4.14%
SSTR2 mutants [2]
  Emax: 68.2 ± 4.05%
SSTR2 mutants [3]; I284A-1
  Bottom: 1.002
SSTR2 mutants [3]; I284A-2
  Bottom: 9.91
SSTR2 mutants [3]; HEK293
  Emax: 94.8 ± 4.62%
SSTR2 mutants [4]; HEK293
  Emax: 68 ± 8.22%
SSTR2 mutants [4]; K291A-1, run 1
  Bottom: -10.2
SSTR2 mutants [4]; K291A-2, run 2
  Bottom: 2.053
SSTR2 mutants [5]; P220A-1
  Bottom: -11.09
SSTR2 mutants [5]; P220A-2
  Bottom: 6.493
SSTR2 mutants [5]; HEK293
  Emax: 20.3 ± 8.01%
SSTR2 mutants [6]; R140A-1
  Bottom: 0.00472
SSTR2 mutants [6]; R140A-2
  Bottom: -1.087
SSTR2 mutants [7]; W269A-1
  Bottom: -0.7468
SSTR2 mutants [7]; W269A-2
  Bottom: -3.268
SSTR2 mutants [7]; HEK293
  Emax: 14.5 ± 3.19%
SSTR2 mutants [8]; Y312A-1
  Bottom: 0.5637
SSTR2 mutants [8]; Y312A-2
  Bottom: -0.6682
SSTR2 mutants [9]; Best-fit values, I284A-1
  LogEC50: -6.559
  Top: 94.85
SSTR2 mutants [9]; Best-fit values, I284A-2
  LogEC50: -7.171
  Top: 92.19
SSTR2 mutants [9]; Best-fit values, P220A-1
  LogEC50: -6.023
  Span: 31.36
  Top: 20.27
SSTR2 mutants [9]; Best-fit values, P220A-2
  LogEC50: -7.589
  Span: 32.52
  Top: 39.01
SSTR2 mutants [9]; Best-fit values, R140A-1
  LogEC50: -8.238
  Span: 48.38
  Top: 48.39
SSTR2 mutants [9]; Best-fit values, R140A-2
  LogEC50: -8.282
  Span: 47.34
  Top: 46.25
SSTR2 mutants [9]; Best-fit values, W269A-1
  EC50: 0.642 nM
  LogEC50: -9.192
  Span: 18.76
  Top: 18.02
SSTR2 mutants [9]; Best-fit values, W269A-2
  EC50: 0.132 nM
  LogEC50: -9.88
  Span: 17.57
  Top: 14.3
SSTR2 mutants [9]; Best-fit values, Y312A-1
  EC50: 10.2 nM
  LogEC50: -7.991
  Span: 45.08
  Top: 45.64
SSTR2 mutants [9]; Best-fit values, Y312A-2
  EC50: 10.3 nM
  LogEC50: -7.988
  Span: 40.73
  Top: 40.06
SSTR2 mutants [9]; alanine substitution of microswitch residues
  Internalization of microswitch mutants: reduced receptor internalization
SSTR2 mutants [9]; best-fit, I284A-1, run 1
  EC50: 276 nM
  Span: 93.85
SSTR2 mutants [9]; best-fit, I284A-2, run 2
  EC50: 67.5 nM
  Span: 82.28
SSTR2 mutants [9]; best-fit, K291A-1, run 1
  EC50: 1610 nM
  LogEC50: -5.793
  Span: 78.24
  Top: 68.05
SSTR2 mutants [9]; best-fit, K291A-2, run 2
  EC50: 615 nM
  LogEC50: -6.211
  Span: 78.94
  Top: 80.99
